{"source": "patent US10722501B2", "about": "(BAYER AKTIENGESELLSCHAFT, priority 2016, dated 2020)", "data": [{"target": "T1, recombinant full-length human prolyl endopeptidase (PREP) (Homo sapiens, UniProt P48147)", "T1 construct": "To recombinant full-length human prolyl endopeptidase (PREP, R&D-Systems, 4308-SE); purchased R&D-Systems 4308-SE", "T1 sequence (P48147 1-710)": "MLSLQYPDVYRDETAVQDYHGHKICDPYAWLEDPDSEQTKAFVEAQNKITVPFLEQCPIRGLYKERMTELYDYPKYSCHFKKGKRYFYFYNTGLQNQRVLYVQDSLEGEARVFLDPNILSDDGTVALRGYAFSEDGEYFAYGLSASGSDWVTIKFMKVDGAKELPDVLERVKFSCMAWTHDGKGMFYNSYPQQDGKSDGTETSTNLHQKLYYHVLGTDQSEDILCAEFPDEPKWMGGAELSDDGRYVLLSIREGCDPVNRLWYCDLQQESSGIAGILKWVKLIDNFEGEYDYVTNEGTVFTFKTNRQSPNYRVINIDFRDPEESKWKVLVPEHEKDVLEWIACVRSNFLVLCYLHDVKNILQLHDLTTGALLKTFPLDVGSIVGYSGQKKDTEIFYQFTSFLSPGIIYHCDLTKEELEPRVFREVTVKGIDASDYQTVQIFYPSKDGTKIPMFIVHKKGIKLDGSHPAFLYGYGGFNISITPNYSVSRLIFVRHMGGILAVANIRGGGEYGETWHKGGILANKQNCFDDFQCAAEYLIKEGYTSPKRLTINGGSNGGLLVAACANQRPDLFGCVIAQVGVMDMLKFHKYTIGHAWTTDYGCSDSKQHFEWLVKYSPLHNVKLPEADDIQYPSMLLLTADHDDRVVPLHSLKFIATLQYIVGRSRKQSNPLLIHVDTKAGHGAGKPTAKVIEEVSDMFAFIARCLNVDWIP", "assay": "Biochemical human prolyl endopeptidase (PREP) assay with fluorescently labelled substrate", "settings": "substrate Z-Gly-Pro-AMC 50 μM, 32° C., 60 min; some as mean values from multiple independent determinations", "how_it_was_run": "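Initial rates of fluorescence increase from 50 μM Z-Gly-Pro-AMC cleavage (ex 360/em 465 nm, 60 min, 32° C) give percent PREP activity versus no-compound control, and IC50 is interpolated. Enzyme used at 0.4 nM (final, example) in Tris pH 7.5 with EDTA, GSH, BSA and Brij-35; compounds span 1 nM to 30 μM.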", "units": {"IC50": "nM"}, "values": [{"compound": "O=C([C@@H]1CCCc2nn(Cc3ncc(F)cc3F)c(=O)n21)N1C[C@@H](F)[C@@H](F)C1", "note": "[Example 411, (5S)-2-[(3,5-Difluoropyridin-2-yl)methyl]-5-{[(3R,4S)-3,4-difluoropyrrolidin-1-yl]carbonyl}-5,6,7,8-tetrahydro[1,2,4]triazolo[4,3-a]pyridin-3(2H)-one]", "IC50": 2.5}, {"compound": "O=C(C1C(C(F)(F)F)CCc2nn(Cc3ncc(Cl)cc3Cl)c(=O)n21)N1CCC(F)(F)C1", "note": "(single isomer, unassigned) [Example 290, (5RS,6RS)-2-[(3,5-Dichloropyridin-2-yl)methyl]-5-[(3,3-difluoropyrrolidin-1-yl)carbonyl]-6-(trifluoromethyl)-5,6,7,8-tetrahydro[1,2,4]triazolo[4,3-a]pyridin-3(2H)-one]", "IC50": 82}, {"compound": "O=C(C1CC(C(F)(F)F)Cc2nn(Cc3ccc(Cl)nc3)c(=O)n21)N1CC[C@H](F)C1", "note": "(single isomer, unassigned) [Example 244]", "IC50": 11}, {"compound": "O=C(C1CCCc2nn(Cc3ccc(Cl)cn3)c(=O)n21)N1CCCC1", "note": "(single isomer, unassigned) [Example 34, (5RS)-2-[(5-Chloropyridin-2-yl)methyl]-5-(pyrrolidin-1-ylcarbonyl)-5,6,7,8-tetrahydro[1,2,4]triazolo[4,3-a]pyridin-3(2H)-one]", "IC50": 7.5}, {"compound": "N#C[C@@H]1CCCN1C(=O)[C@@H]1CCCc2nn(Cc3ccc(C(F)(F)F)nc3)c(=O)n21", "note": "[Example 511, (2S)-1-{[(5S)-3-Oxo-2-{[6-(trifluoromethyl)pyridin-3-yl]methyl}-2,3,5,6,7,8-hexahydro[1,2,4]triazolo[4,3-a]pyridin-5-yl]carbonyl}pyrrolidine-2-carbonitrile]", "IC50": 0.365}, {"compound": "Cc1cc(Cn2nc3n(c2=O)C(C(=O)N2CC(F)C2)CCC3)on1", "note": "(racemic) [Example 417, (5RS)-5-[(3-Fluoroazetidin-1-yl)carbonyl]-2-[(3-methyl-1,2-oxazol-5-yl)methyl]-5,6,7,8-tetrahydro[1,2,4]triazolo[4,3-a]pyridin-3(2H)-one]", "IC50": 18}, {"compound": "O=C([C@@H]1CCCc2nn(Cc3ncc(Cl)cc3Cl)c(=O)n21)N1CC(F)C1", "note": "[Example 398, (5S)-2-[(3,5-Dichloropyridin-2-yl)methyl]-5-[(3-fluoroazetidin-1-yl)carbonyl]-5,6,7,8-tetrahydro[1,2,4]triazolo[4,3-a]pyridin-3(2H)-one]", "IC50": 1.19}, {"compound": "O=C(C1C(C(F)(F)F)CCc2nn(Cc3ccc(Cl)cn3)c(=O)n21)N1CC(F)C1", "note": "(single isomer, unassigned) [Example 311, (5RS,6RS)-2-[(5-Chloropyridin-2-yl)methyl]-5-[(3-fluoroazetidin-1-yl)carbonyl]-6-(trifluoromethyl)-5,6,7,8-tetrahydro[1,2,4]triazolo[4,3-a]pyridin-3(2H)-one]", "IC50": 30}, {"compound": "O=C(C1C(C(F)(F)F)CCc2nn(Cc3ccc(C(F)(F)F)nc3)c(=O)n21)N1CC(F)C1", "note": "(single isomer, unassigned) [Example 305, (5RS,6RS)-5-[(3-Fluoroazetidin-1-yl)carbonyl]-6-(trifluoromethyl)-2-{[6-(trifluoromethyl)pyridin-3-yl]methyl}-5,6,7,8-tetrahydro[1,2,4]triazolo[4,3-a]pyridin-3(2H)-one]", "IC50": 14}, {"compound": "O=C(C1CC(C(F)(F)F)Cc2nn(Cc3ccnc(C(F)(F)F)c3F)c(=O)n21)N1CC(F)C1", "note": "(single isomer, unassigned) [Example 254, (5RS,7RS)-5-[(3-Fluoroazetidin-1-yl)carbonyl]-2-{[3-fluoro-2-(trifluoromethyl)pyridin-4-yl]methyl}-7-(trifluoromethyl)-5,6,7,8-tetrahydro[1,2,4]triazolo[4,3-a]pyridin-3(2H)-one]", "IC50": 30.5}, {"compound": "O=C([C@@H]1CCC(F)(F)c2nn(Cc3ncc(C(F)(F)F)cc3Cl)c(=O)n21)N1CC[C@H](F)C1", "note": "[Example 589, (5S)-2-{[3-Chloro-5-(trifluoromethyl)pyridin-2-yl]methyl}-8,8-difluoro-5-{[(3S)-3-fluoropyrrolidin-1-yl]carbonyl}-5,6,7,8-tetrahydro[1,2,4]triazolo[4,3-a]pyridin-3(2H)-one]", "IC50": 0.35}, {"compound": "O=C([C@@H]1CCCc2nn(Cc3cccc(C(F)(F)F)n3)c(=O)n21)N1CC[C@H](F)C1", "note": "[Example 370, (5S)-5-{[(3S)-3-Fluoropyrrolidin-1-yl]carbonyl}-2-{[6-(trifluoromethyl)pyridin-2-yl]methyl}-5,6,7,8-tetrahydro[1,2,4]triazolo[4,3-a]pyridin-3(2H)-one]", "IC50": 1}, {"compound": "Cn1ccc(Cn2nc3n(c2=O)C(C(=O)N2CCCC2)CCC3)n1", "note": "(racemic) [Example 21, (5RS)-2-[(1-Methyl-1H-pyrazol-3-yl)methyl]-5-(pyrrolidin-1-ylcarbonyl)-5,6,7,8-tetrahydro[1,2,4]triazolo[4,3-a]pyridin-3(2H)-one]", "IC50": 6.9}, {"compound": "Cc1cc(Cn2nc3n(c2=O)C(C(=O)N2CCCC2)CCC3)on1", "note": "(racemic) [Example 13, (5RS)-2-[(3-Methyl-1,2-oxazol-5-yl)methyl]-5-(pyrrolidin-1-ylcarbonyl)-5,6,7,8-tetrahydro[1,2,4]triazolo[4,3-a]pyridin-3(2H)-one]", "IC50": 5.4}, {"compound": "O=C(C1CC(C(F)(F)F)Cc2nn(Cc3ccc(Cl)cn3)c(=O)n21)N1CC[C@H](F)C1", "note": "(single isomer, unassigned) [Example 315]", "IC50": 1.4}, {"compound": "CC1CCC(C(=O)N2CC[C@H](F)C2)n2c1nn(Cc1ccc(F)c(Cl)c1)c2=O", "note": "(mixture of isomers) [Example 320, (5RS,8RS)-2-(3-Chloro-4-fluorobenzyl)-5-{[(3S)-3-fluoropyrrolidin-1-yl]carbonyl}-8-methyl-5,6,7,8-tetrahydro[1,2,4]triazolo[4,3-a]pyridin-3(2H)-one]", "IC50": 0.69}, {"compound": "Cc1ccc(C(=O)Cn2nc3n(c2=O)[C@H](C(=O)N2CC[C@H](F)C2)CCC3)cc1", "note": "[Example 516, (5S)-5-{[(3S)-3-Fluoropyrrolidin-1-yl]carbonyl}-2-[2-(4-methylphenyl)-2-oxoethyl]-5,6,7,8-tetrahydro[1,2,4]triazolo[4,3-a]pyridin-3(2H)-one]", "IC50": 4.2}, {"compound": "Cn1nc(Cn2nc3n(c2=O)[C@H](C(=O)N2CC(F)C2)CCC3)c2cccnc21", "note": "[Example 534, (5S)-5-[(3-Fluoroazetidin-1-yl)carbonyl]-2-[(1-methyl-1H-pyrazolo[3,4-b]pyridin-3-yl)methyl]-5,6,7,8-tetrahydro[1,2,4]triazolo[4,3-a]pyridin-3(2H)-one]", "IC50": 1.23}, {"compound": "Cc1ccc(C2(Cn3nc4n(c3=O)[C@H](C(=O)N3CCC(F)(F)C3)CCC4)CC2)cc1", "note": "[Example 524, (5S)-5-[(3,3-Difluoropyrrolidin-1-yl)carbonyl]-2-{[1-(4-methylphenyl)cyclopropyl]methyl}-5,6,7,8-tetrahydro[1,2,4]triazolo[4,3-a]pyridin-3(2H)-one]", "IC50": 2.9}, {"compound": "O=C([C@@H]1CCCc2nn(Cc3nccc(C(F)(F)F)c3Cl)c(=O)n21)N1C[C@@H](F)[C@@H](F)C1", "note": "[Example 388, (5S)-2-{[3-Chloro-4-(trifluoromethyl)pyridin-2-yl]methyl}-5-{[(3R,4S)-3,4-difluoropyrrolidin-1-yl]carbonyl}-5,6,7,8-tetrahydro[1,2,4]triazolo[4,3-a]pyridin-3(2H)-one]", "IC50": 0.575}, {"compound": "O=C([C@@H]1CCCc2nn(Cc3ccnc(C(F)(F)F)c3F)c(=O)n21)N1CC[C@H](O)C1", "note": "[Example 479, (5S)-2-{[3-Fluoro-2-(trifluoromethyl)pyridin-4-yl]methyl}-5-{[(3S)-3-hydroxypyrrolidin-1-yl]carbonyl}-5,6,7,8-tetrahydro[1,2,4]triazolo[4,3-a]pyridin-3(2H)-one]", "IC50": 25}, {"compound": "O=C([C@@H]1CCCc2nn(Cc3ccc(Cl)nc3)c(=O)n21)N1CC(F)C(F)C1", "note": "(mixture of isomers) [Example 550, (5S)-2-[(6-Chloropyridin-3-yl)methyl]-5-{[trans-3,4-difluoropyrrolidin-1-yl]carbonyl}-5,6,7,8-tetrahydro[1,2,4]triazolo[4,3-a]pyridin-3(2H)-one]", "IC50": 18}, {"compound": "Cn1c(Cn2nc3n(c2=O)C(C(=O)N2CCCC2)CCC3)nc2ccccc21", "note": "(racemic) [Example 62, (5RS)-2-[(1-Methyl-1H-benzimidazol-2-yl)methyl]-5-(pyrrolidin-1-ylcarbonyl)-5,6,7,8-tetrahydro[1,2,4]triazolo[4,3-a]pyridin-3(2H)-one]", "IC50": 2}, {"compound": "Cc1ccc(Cn2nc3n(c2=O)C(C(=O)N2CCC4(C2)CC4(F)F)CCC3)cc1", "note": "(mixture of isomers) [Example 128, (5S)-{[(3RS)-1,1-Difluoro-5-azaspiro[2.4]hept-5-yl]carbonyl}-2-(4-methylbenzyl)-5,6,7,8-tetrahydro[1,2,4]triazolo[4,3-a]pyridin-3(2H)-one]", "IC50": 46}]}]}
